Source: ChEMBL document CHEMBL1156494, “Stelliferin riboside, a triterpene monosaccharide isolated from the Fijian sponge Geodia globostellifera” (J Nat Prod, 2001)
≈ marks a conversion by molar mass, not a printed value.

What was measured:
A2780 = experiment: Cytotoxicity against human A2780 cells; format: functional, cell-based
K562 = experiment: Cytotoxicity against human K562 cells; format: functional, cell-based

Row | Structure (SMILES) | IC50 (A2780) | IC50 (K562)
1 | CC(=O)O[C@@H]1CC[C@@]2(C)[C@@H](CC[C@]3(C)/C(=C(C)/C=C/C=C(\C)C(CC=C(C)C)O[C@@H]4OC[C@@H](O)[C@@H](O)[C@H]4O)C(=O)C[C@@H]23)C1(C)C (stereo partly specified) [STELLIFERIN RIBOSIDE] | 38.1 µg/mL (≈ 60.6 µM) | > 50 µg/mL
2 | C\C(=C/C=C/C(C)=C1/C(=O)C[C@H]2[C@@]3(C)CCC(=O)C(C)(C)[C@@H]3CC[C@]12C)c1ccc(C)c(=O)o1 [STELLETIN A] | 1.52 µg/mL (≈ 3.29 µM) | 3.82 µg/mL (≈ 8.26 µM)
3 | CC(/C=C/C=C(\C)c1ccc(C)c(=O)o1)=C1/C(=O)C[C@H]2[C@@]3(C)CCC(=O)C(C)(C)[C@@H]3CC[C@]12C [STELLETTIN B] | 0.0051 µg/mL (≈ 0.011 µM) | 0.93 µg/mL (≈ 2.01 µM)
